Results reported in ChEMBL document CHEMBL1147811, “Synthesis of EF24-tripeptide chloromethyl ketone: a novel curcumin-related anticancer drug delivery system” (J Med Chem, 2006).

How the values were obtained:
Melanocyte [1] = assay: Viability of human non-TF expressing melanocytes; type: cell-based
MDA-MB-231 = assay: Viability of human TF expressing MDA-MB-231 cell line; type: cell-based
RPMI-7951 [2] = assay: Viability of human TF expressing RPMI7951 cell line; type: cell-based
[3] = Viability of human non-TF expressing MCF10 cell line; type: cell-based; settings: MCF10 cells (non-TF expressing)
RPMI-7951 [4] = assay: Cytotoxicity against human TF expressing RPMI7951 cell line at 2 uM; type: functional, cell-based
Melanocyte [5] = assay: Cytotoxicity against human non-TF expressing melanocytes at 4 uM; type: functional, cell-based

SMILES: N=C(N)NCCC[C@H](NC(=O)[C@H](Cc1ccccc1)NC(=O)[C@H](Cc1ccccc1)NC(=O)CCC(=O)N1C/C(=C\c2ccccc2F)C(=O)/C(=C/c2ccccc2F)C1)C(=O)CCl.O=C(O)C(F)(F)F
- Activity (Melanocyte [1]): Not Active
- Activity (MDA-MB-231): Not Active
- Activity (RPMI-7951 [2]): Not Active
- viability [3]: > 95%

SMILES: O=C1/C(=C/c2ccccc2F)CNC/C1=C\c1ccccc1F
- Activity (RPMI-7951 [4]): Toxic
- Activity (Melanocyte [5]): Toxic
